Experimental data taken from patent US20220152117A1, “METHODS OF PROMOTING CELLULAR MATURATION WITH AMPK ACTIVATORS” (UNIVERSITY OF WASHINGTON, priority 2019, published 2022).
Several values for one entry are separate records, joined by “and”; a condition that tells them apart may be missing. Equal values may be shown once. Entries after “also recorded” stand apart in the source; their conditions may differ.

Legend:
Type in all cases: cell-based, human
hPSC-CMs [1] = assay: Electron microscopy and point counting of relative mitochondrial volume; settings: after AICAR treatment; control 0.068±0.006
Experimental: Adherent cells in tissue culture dishes were fixed for transmission electron microscopy in half-strength Karnovsky's fixative (2.0% paraformaldehyde, 2.5% glutaraldehyde, 0.1M phosphate buffer, pH 7.4) overnight. The cells were then washed in 0.1M phosphate buffer two times (5 minutes each) and post-fixed in 1.0% OsO4 in 0.1M phosphate buffer. Cells were rinsed twice (5 minutes each) then dehydrated in […], 70% and 90% alcohol, 2 minutes each, then in 100% alcohol twice (5 minutes each). Cells were embedded in Polybed 812 Resin™ (Ted Pella®, Redding, Calif.) by first infiltrating with a mixture of 50% alcohol/50% polybed for 1 hour and then pure polybed for 3 hours. Beem capsules filled with fresh resin were inverted over areas of cells. Polymerization procedure was performed for 24 hours at 65° C. Removal of beem capsules was achieved by placing plates in boiling water then gently peeling the capsule containing the polymerized resin and cells away from the plastic plate. Sections for light and transmission electron microscopy were cut using a Reichert Ultracut E Microtome™. […] The relative mitochondrial volume was calculated by point counting, in which 20 horizontal and 20 perpendicular lines were drawn in the images and the crosspoints that overlapped with mitochondria was counted and then divided by the total points.

hiPSC-CMs = assay: mtDNA to nDNA ratio by q-PCR in cardiomyocytes; settings: relative to control hiPSC-CMs
Text: Mitochondrial DNA (mtDNA) to nuclear DNA (nDNA) ratio was estimated by q-PCR. For this purpose, a mtDNA fragment within the NADH dehydrogenase 1 (ND 1) gene and a region of the nuclear DNA-encoded lipoprotein lipase gene (LPL) were amplified. The primer sequences for ND 1 and LPL were adapted from^30. Total DNA was extracted using Qiagen DNeasy Kit™.

hPSC-CMs [2] = assay: Mitochondrial oxidation of palmitate, Seahorse XF96 extracellular flux palmitate-albumin assay; settings: 1 mM AICAR for 2 weeks
Experimental: The Seahorse XF96 extracellular flux Analyzer™ was used to assess the fatty acid oxidation capacity of the hPSC-CMs. XF96 plates were pre-treated with fibronectin at a concentration of 1 μg/cm^2. At around 20 days after induction of differentiation, the cardiomyocytes were seeded onto the XF96 plates at a density of 30,000 cells per well (2,500/mm^2). The cells were treated with 1 mM AICAR for two weeks before the palmitate-albumin assay. An hour prior to performing this assay, culture medium was exchanged for basal media (unbuffered DMEM, Sigma D5030, supplemented with 2 mM glutamine, 1 mM pyruvate, 25 mM glucose, and 400 μM carnitine). Palmitate-albumin complexes were made following the Seahorse Bioscience protocol. Substrates were injected during the measurements to achieve two spike concentrations of palmitate-albumin at 200 μM each. The oxygen consumption rates (OCR values) were further normalized to the number of cells present in each well, quantified by staining with Hoechst 33342 (Sigma-Aldrich) as measured using fluorescence at 355 nm excitation and 460 nm emission. The highest OCR values induced by palmitate-albumin were used for statistics. Due to variations in the absolute magnitude of OCR measurements in different experiments, the relative AICAR treated/untreated control levels were used to compare and summarize independent biological replicates (N=7).

[3] = tested on: cardiomyocytes from ARVD/C hiPSCs; assay: TUNEL cell viability assay, cardiomyocytes from mutant PKP2 (ARVD/C) hiPSCs; settings: two weeks treatment, TUNEL with α-actinin co-stain
Experimental: The normal and mutant Plakophilin 2 (PKP2) cells were generated as described previously^37. Induced pluripotent cells were cultured with E8 medium in Matrigel® coated plates. Cardiomyocytes were obtained using a protocol based on Lian et al^38 that involves Wnt agonist CHIR 99021 in the early stages of differentiation followed by the Wnt antagonist IWP2 under monolayer condition. Before Day 7, cells were cultured in RPMI plus B27 without insulin while on Day 7 and afterwards, EB media (KO-DMEM with 2% FBS, 1 mM NEAAs, 1× GlutaMAX, 1 mM mercaptoethanol, and penicillin/streptomycin) was used. At 30 days of differentiation, beating EBs were treated with three factors (3F) (50 μg/ml insulin, 0.5 μM dexamethasone, and 0.25 mM IBMX) or five factors (5F) (3F plus PPAR-γ agonists 5 μM rosiglitazone and 200 μM indomethacin) media as described earlier or treated with 1 mM AICAR or AICAR plus rosiglitazone and indomethacin for two weeks. TUNEL staining with In Situ Cell Death Detection Kit TMR Red™ (Roche®) was used to assess cell viability after conducting different treatment. TUNEL staining was co-stained with anti-α-actinin antibody so that cardiomyocyte-specific apoptosis could be assessed.

## NC(=O)c1ncn([C@@H]2O[C@H](CO)[C@@H](O)[C@H]2O)c1N [AICAR, 5-amino-4-imidazolecarboxamide riboside-1-β-D-ribofuranoside]
hPSC-CMs [1]
  mitochondrial volume fraction: 0.119±0.013
hiPSC-CMs
  increase in the ratio of mtDNA to nDNA: 55%
hPSC-CMs [2]
  increase in oxygen consumption rate (OCR) upon palmitate-albumin introduction: 2.32±0.12 fold and ~2.3 fold
[3]
  apoptosis / cell death in cardiomyocytes from ARVD/C (mutant PKP2) hiPSCs: induced significant apoptosis; also recorded: induced significant cell death
